What all share (type): in vivo
Common to all, as to conditions: 320 grams per hectare, scored visually after 3 to 4 weeks

The test system of one series is oilseed rape. The series can be described thus: Pre-emergence compatibility with crop plants. The source says:
(§1) Pre-emergence Herbicidal Action against Weed Plants and Compatibility with Crop Plants
(§2) Seeds or rhizome sections of mono- and dicotyledonous weed plants are set out in pots of 9 to 13 cm in diameter in sandy loam soil, and are covered with soil. The herbicides, formulated as emulsifiable concentrates or dusting products, are applied to the surface of the covering earth in different doses in the form of aqueous dispersions or suspensions or emulsions, at a water application rate of 300 to 800 I/ha (converted). The pots are then maintained under glass under optimum conditions for the further cultivation of the plants. After the trial plants have stood for 3 to 4 weeks under glass under optimum growth conditions, the effect of the inventive compounds is scored visually.

The subject of series [1] is corn. Put plainly: Pre-emergence compatibility with crop plants.
From the text: as §1, §2

For series [2], the system named is corn. Put plainly: Post-emergence compatibility with crop plants. The procedure:
Post-emergence herbicidal action against weed plants and compatibility with crop plants Seeds of monocotyledonous and dicotyledonous weed plants are set out in cardboard pots in sandy loam soil, covered with soil, and cultivated under glass under good growth conditions. Two to three weeks after sowing, the trial plants are treated at the three-leaf stage. The inventive compounds, formulated as wettable powders or as emulsifiable concentrates, are sprayed onto the surface of the green parts of the plants, at a water application rate of 600 to 800 I/ha (converted). After the trial plants have stood for 3 to 4 weeks under glass under optimum growth conditions, the effect of the inventive compounds is scored visually.

Structures are written as SMILES.

As for `C=CCn1c(=O)c(-c2c(C)cc(C)cc2C)c(O)c2scnc21` [I-a-2, 4-allyl-7-hydroxy-6-mesityl[1,3]thiazolo[4,5-b]pyridin-5(4H)-one], the “damage in oilseed rape” value with oilseed rape was “do not exhibit any damage”. Still for that read-out and setting: next, `C=CCn1c(=O)c(-c2c(Br)cc(Cl)cc2CC)c(O)c2cn(C)nc21` [I-a-28]: “do not exhibit any damage”.

With `CCc1cc(Cl)cc(Br)c1-c1c(O)c2scnc2n(CC(F)F)c1=O` [I-a-36], the damage in corn result in the series on corn [1] and in the series on corn [2] was “do not exhibit any damage” each time. For `Cc1cc(C)c(-c2c(O)c3scnc3n(CC(F)F)c2=O)c(C)c1` [I-a-37], the damage in corn entry with corn [2] is listed as “do not exhibit any damage”.

As for `CCc1cc(Cl)cc(Br)c1-c1c(O)c2cn(C)nc2n(CC(F)F)c1=O` [I-a-43], the “damage in oilseed rape” value in the series on oilseed rape is reported as “do not exhibit any damage”. `C#CCn1c(=O)c(-c2c(Cl)cccc2Cl)c(O)c2scnc21` [I-a-44]: the damage in corn entry with corn [1] and in the series on corn [2] was “do not exhibit any damage” each time. Consider `O=c1c(-c2c(Cl)ccc(Br)c2Cl)c(O)c2scnc2n1CC(F)F` [I-a-75], for which, in the series with corn [1], the damage in corn result was “do not exhibit any damage”. Turning to `O=c1c(-c2c(Cl)ccc(C3CC3)c2Cl)c(O)c2scnc2n1CC(F)F` [I-a-83], the damage in corn result with corn [2] is listed as “do not exhibit any damage”. Still for that read-out and setting: in the case of `Cc1ccc(Cl)c(-c2c(O)c3scnc3n(CC(F)(F)F)c2=O)c1Cl` [I-a-86] it was “do not exhibit any damage”. On to `Cc1ccc(Cl)c(-c2c(O)c3scnc3n(CC(F)F)c2=O)c1Cl` [I-a-89], for which the damage in corn entry in the series with corn [1] is “do not exhibit any damage”. `Cc1c(Br)ccc(Cl)c1-c1c(O)c2scnc2n(C)c1=O` [I-a-93]: the damage in corn entry in the series on corn [2] is recorded as “do not exhibit any damage”. `Cc1c(Br)ccc(Cl)c1-c1c(O)c2scnc2n(CC(F)F)c1=O` [I-a-94]: the damage in corn result in the series with corn [1] is on record as “do not exhibit any damage”. In the case of `Cc1cc(Br)cc(C)c1-c1c(O)c2scnc2n(CC(F)F)c1=O` [I-a-97], the damage in corn result in the series with corn [1] was “do not exhibit any damage”.

For `C=CCn1c(=O)c(-c2c(Br)cc(Cl)cc2CC)c(OC(=O)C(C)(C)C)c2scnc21` [I-b-22], in the series on corn [1], the damage in corn entry is on record as “do not exhibit any damage”. Still for that read-out and setting: next, `CCOC(=O)Oc1c(-c2c(C)cc(Br)cc2CC)c(=O)n(C)c2ncsc12` [I-c-38]: “do not exhibit any damage”. In the case of `C[N+](C)(C)C.Cc1cc(C)c(-c2c([O-])c3scnc3n(CC(F)F)c2=O)c(C)c1` [I-g-5], in the series with corn [2], the damage in corn result is reported as “do not exhibit any damage”. As to `C#CCOc1c(-c2ccccc2C(F)(F)F)c(=O)n(CC#C)c2ncsc12` [I-h-11], in the series on corn [2], the damage in corn result is reported as “do not exhibit any damage”.

These data come from US8686000B2, “Herbicidally active ketosultams and diketopyridines” (Bayer Cropscience AG, priority 2010, dated 2014).
